From patent US20240158446A1, “CYCLIC COMPOUND HAVING SELECTIVE INHIBITORY ACTION ON KRAS OVER HRAS AND NRAS” (CHUGAI SEIYAKU KABUSHIKI KAISHA, priority 2021, published 2024)
Like-named read-outs stand apart in the source and are kept apart here. Where a SMILES comes first, the peptide text is derived from it. Bridges are numbered along the chain shown (N, C = ends). [ ]: non-standard residue; d: D form. The star is where a group is joined. hPhe(3-Cl-4-CF3) = N[C@@H](CCc1ccc(C(F)(F)F)c(Cl)c1)C(=O)O; NPrPhe(4-CF3) = CCCN[C@@H](Cc1ccc(C(F)(F)F)cc1)C(=O)O; NMeGly(cPent) = CN[C@H](C(=O)O)C1CCCC1; NMeD = CN[C@@H](CC(=O)O)C(=O)O; NMeL = CN[C@@H](CC(C)C)C(=O)O; Morpholide = C1CN(*)CCO1; Pyrrolidide = C1CCN(*)C1; Ac5c = NC1(C(=O)O)CCCC1; Sar = CNCC(=O)O

Assays:
[1] = biological target: GDP-bound KRAS wild-type protein (Homo sapiens, UniProt P01116); experiment: Binding to KRAS by surface plasmon resonance (SPR), Single Cycle Kinetics; conditions: GDP-bound KRAS wild-type protein, read-out: KRAS KD
[2] = test system: human lung cancer strain NCI-H441;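 note: cell proliferation inhibition after four days measured by CellTiter-Glo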
[3] = biological target: GDP-bound HRAS wild-type protein (Homo sapiens, UniProt P01112); experiment: Binding to HRAS by surface plasmon resonance (SPR), Single Cycle Kinetics; conditions: for HRAS/KRAS (ratio of KD value for HRAS to KD value for KRAS): GDP-bound HRAS wild-type protein vs GDP-bound KRAS wild-type protein; for HRAS/KRAS (ratio of KD value with respect to GDP-bound HRAS wild-type protein to KD value with respect to KRAS): SPR KD ratio HRAS/KRAS, class symbols
[4] = biological target: GDP-bound NRAS wild-type protein (Homo sapiens, UniProt P01111); experiment: Binding to NRAS by surface plasmon resonance (SPR), Single Cycle Kinetics; conditions: for NRAS/KRAS (ratio of KD value for NRAS to KD value for KRAS): GDP-bound NRAS wild-type protein vs GDP-bound KRAS wild-type protein; for NRAS/KRAS (ratio of KD value with respect to GDP-bound NRAS wild-type protein to KD value with respect to KRAS): SPR KD ratio NRAS/KRAS, class symbols
[5] = SPR Single Cycle Kinetics, 1:1 binding model
[6] = SPR, Single Cycle Kinetics, 1:1 binding model

Sequence of GDP-bound HRAS wild-type protein (P01112 whole entry): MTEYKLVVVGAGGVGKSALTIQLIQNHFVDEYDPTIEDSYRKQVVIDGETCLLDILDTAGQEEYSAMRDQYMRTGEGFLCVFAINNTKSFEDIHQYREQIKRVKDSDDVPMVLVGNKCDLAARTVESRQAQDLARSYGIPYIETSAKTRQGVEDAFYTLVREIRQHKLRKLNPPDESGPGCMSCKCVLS
Sequence of GDP-bound NRAS wild-type protein (P01111 whole entry): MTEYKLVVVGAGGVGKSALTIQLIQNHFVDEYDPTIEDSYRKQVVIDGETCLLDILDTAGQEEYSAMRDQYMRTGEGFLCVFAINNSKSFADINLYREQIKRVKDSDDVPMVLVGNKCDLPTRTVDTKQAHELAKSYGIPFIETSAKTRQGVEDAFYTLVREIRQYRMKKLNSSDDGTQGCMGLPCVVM
Sequence of GDP-bound KRAS wild-type protein (P01116 whole entry): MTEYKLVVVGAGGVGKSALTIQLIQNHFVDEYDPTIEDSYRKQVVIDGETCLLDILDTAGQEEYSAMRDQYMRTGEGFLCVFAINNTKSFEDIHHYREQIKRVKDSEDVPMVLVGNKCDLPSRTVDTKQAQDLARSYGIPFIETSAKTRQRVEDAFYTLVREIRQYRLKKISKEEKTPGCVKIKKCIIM

| SMILES | Kd ([1]; SPR, Single Cycle Kinetics) | IC50 [2] | HRAS/KRAS (ratio of KD value for HRAS to KD value for KRAS) ([3]; SPR) | NRAS/KRAS (ratio of KD value for NRAS to KD value for KRAS) ([4]; SPR) | Kd [1, 5] | also measured |
| --- | --- | --- | --- | --- | --- | --- |
| CCO[C@@H]1C[C@H]2C(=O)NC3(CCC3)C(=O)N(C)[C@@H](C3CCCC3)C(=O)N(C)[C@H](C(=O)N3CCOCC3)CC(=O)N(C)[C@@H](Cc3ccccc3C#N)C(=O)N[C@@H]([C@@H](C)CC)C(=O)N(C)CC(=O)N(C)[C@H]3CCCCCN(C3=O)[C@@H](Cc3ccc(F)cc3)C(=O)N(C)CC(=O)N[C@@H](CCc3cc(F)c(C(F)(F)F)c(F)c3)C(=O)N2C1 [PP1185] | 0.5 nM | 175 nM | B (a compound having 3 or more and less than 10 is denoted as B) | B (a compound having 3 or more and less than 10 is denoted as B) | – | – |
| CCCN1C(=O)CN(C)C(=O)CN(C)C(=O)[C@H]([C@@H](C)CC)NC(=O)[C@H](CC(C)C)N(C)C(=O)C[C@@H](C(=O)N2CCCC2)N(C)C(=O)[C@H](C2CCCC2)N(C)C(=O)C2(CCCC2)NC(=O)[C@@H]2CCCN2C(=O)[C@H](CCc2ccc(C(F)(F)F)c(Cl)c2)NC(=O)CN(C)C(=O)[C@@H]1Cc1ccc(C(F)(F)F)cc1 [PP0170] ([NMeL]I[Sar][Sar][NPrPhe(4-CF3)][Sar][hPhe(3-Cl-4-CF3)]P[Ac5c][NMeGly(cPent)][NMeD]-Pyrrolidide; lactam N-11) | – | 5.2 nM | B (a compound having 3 or more and less than 10 is denoted as B) | B (a compound having 3 or more and less than 10 is denoted as B) | 0.12 nM | – |
| CCO[C@@H]1C[C@H]2C(=O)NC3(CCC3)C(=O)N(C)[C@@H](C3CCCC3)C(=O)N(C)[C@H](C(=O)N(C)C)CC(=O)N(C)[C@@H](CC3CCCC3)C(=O)N[C@@H]([C@@H](C)CC)C(=O)N(C)CC(=O)N(C)[C@H]3C/C=C\CCN(C3=O)[C@@H](Cc3ccc(C(F)(F)F)cc3)C(=O)N(C)CC(=O)N[C@@H](CCc3ccc(C(F)(F)F)c(OC)c3)C(=O)N2C1 [PP1248, (2S,8S,12R,14S,20S,23S,27S,30S,36S,38Z)-20-cyclopentyl-27-(cyclopentylmethyl)-12-ethoxy-8-[2-[3-methoxy-4-(trifluoromethyl)phenyl]ethyl]-N,N,4,19,22,26,32,35-octamethyl-30-[(1S)-1-methylpropyl]-3,6,9,15,18,21,25,28,31,34,42-undecaoxo-2-[[4-(trifluoromethyl)phenyl]methyl]spiro[1,4,7,10,16,19,22,26,29,32,35-undecazatricyclo[34.5.1.0^10,14]dotetracont-38-ene-17,1′-cyclobutane]-23-carboxamide] | – | 7.3 nM | – | – | – | Kd [1, 6]: 0.069 nM; HRAS/KRAS (ratio of KD value for HRAS to KD value for KRAS) ([3]; SPR, KD ratio class): A (a compound having 10 or more and less than 20 is denoted as A); NRAS/KRAS (ratio of KD value for NRAS to KD value for KRAS) ([4]; SPR, KD ratio class): A (a compound having 10 or more and less than 20 is denoted as A) |
| CCOC[C@H]1C(=O)N[C@@H]([C@@H](C)CC)C(=O)N(C)CC(=O)N(C)[C@H]2C/C=C\CCN(C2=O)[C@@H](CC2CCC(F)(F)CC2)C(=O)N(C)CC(=O)N[C@@H](CCc2cc(F)c(C(F)(F)F)c(F)c2)C(=O)N2C[C@H](OCC)C[C@H]2C(=O)NC2(CC(C)(C)C2)C(=O)N(C)[C@@H](C(CC)CC)C(=O)N(C)[C@H](C(=O)N(C)C)CC(=O)N1C [PP2450] | 0.55 nM | 29.2 nM | A (a compound having 10 or more and less than 20 is denoted as A) | A (a compound having 10 or more and less than 20 is denoted as A) | – | – |
| CCCN1C(=O)CN(C)C(=O)CN(C)C(=O)[C@H]([C@@H](C)CC)NC(=O)[C@H](CC(C)C)N(C)C(=O)C[C@@H](C(=O)N2CCOCC2)N(C)C(=O)[C@H](C2CCCC2)N(C)C(=O)C2(CCCC2)NC(=O)CN(C)C(=O)[C@H](CCc2ccc(C(F)(F)F)c(Cl)c2)NC(=O)CN(C)C(=O)[C@@H]1Cc1ccc(C(F)(F)F)cc1 [PP0266] ([NMeL]I[Sar][Sar][NPrPhe(4-CF3)][Sar][hPhe(3-Cl-4-CF3)][Sar][Ac5c][NMeGly(cPent)][NMeD]-Morpholide; lactam N-11) | – | 15.2 nM | C (A compound having a KD ratio of 0.1 or more and less than 3 is denoted as C) | B (a compound having 3 or more and less than 10 is denoted as B) | 0.2 nM | – |
| CC[C@H](C)[C@@H]1NC(=O)[C@@H]2CCCc3ccc(cc3)C[C@@H](C(=O)N(C)CC(=O)N[C@@H](CCc3ccc(C(F)(F)F)c(OC)c3)C(=O)N3C[C@H](OC4CCC4)C[C@H]3C(=O)NC3(CC(C)(C)C3)C(=O)N(C)[C@@H](C3CCCC3)C(=O)N(C)[C@H](C(=O)N(C)CC)CC(=O)N2C)N2CC/C=C\C[C@@H](C2=O)N(C)C(=O)CN(C)C1=O [PP3085] | 0.11 nM | – | B (a compound having 3 or more and less than 10 is denoted as B) | A (a compound having 10 or more and less than 20 is denoted as A) | – | IC50 ([2]; read-out: NCI-H441 cell proliferation inhibitory activity, 50% proliferation inhibitory concentration (IC50 value), NCI-H441, four days, CellTiter-Glo): 6.3 nM; ratio of the KD value with respect to GDP-bound HRAS wild-type protein to the KD value with respect to KRAS ([3]; SPR, KD(HRAS)/KD(KRAS)): B (a compound having 3 or more and less than 10 is denoted as B); ratio of the KD value with respect to GDP-bound NRAS wild-type protein to the KD value with respect to KRAS ([4]; SPR, KD(NRAS)/KD(KRAS)): A (a compound having 10 or more and less than 20 is denoted as A) |
| CCO[C@@H]1C[C@H]2C(=O)NC3(CCC3)C(=O)N(C)[C@@H](C3CCCC3)C(=O)N(CC)[C@H](C(=O)N3CCOCC3)CC(=O)N(C)[C@@H](CCC(F)F)C(=O)N[C@@H]([C@@H](C)CC)C(=O)N(C)CC(=O)N(C)[C@H]3CCCCCN(C3=O)[C@@H](Cc3ccc(C(F)(F)F)cc3)C(=O)N(C)CC(=O)N[C@@H](CCc3cc(F)c(C(F)(F)F)c(F)c3)C(=O)N2C1 [PP0948] | 3.2 nM | 234 nM | A (a compound having 10 or more and less than 20 is denoted as A) | A (a compound having 10 or more and less than 20 is denoted as A) | – | – |
| CCC[C@H]1C(=O)N[C@@H]([C@@H](C)CC)C(=O)N2C[C@@H](OC)C[C@H]2C(=O)N(C)[C@H]2C/C=C\CCN(C2=O)[C@@H](Cc2ccc(C)cc2)C(=O)N(C)CC(=O)N[C@@H](CCc2ccc(C(F)(F)F)c(OC)c2)C(=O)N2C[C@@H](C)C[C@H]2C(=O)NC2(CC(C)(C)C2)C(=O)N(C)[C@@H](C2CCCC2)C(=O)N(C)[C@H](C(=O)N(C)C)CC(=O)N1C [PP2388] | 0.33 nM | 22.9 nM | B (a compound having 3 or more and less than 10 is denoted as B) | A (a compound having 10 or more and less than 20 is denoted as A) | – | – |
| CC[C@H](C)[C@@H]1NC(=O)[C@H](CC2CC2)N(C)C(=O)C[C@@H](C)N(C)C(=O)[C@H](C2CCCC2)N(C)C(=O)C2(CCC2)NC(=O)[C@H](CC(F)F)N(C)C(=O)[C@H](CCc2cc(F)c(C(F)(F)F)c(F)c2)NC(=O)CN(C)C(=O)[C@H](Cc2ccc(C(F)(F)F)cc2)N2CC/C=C\C[C@@H](C2=O)N(C)C(=O)CN(C)C1=O [PP1405] | – | 466 nM | – | – | – | Kd [1, 6]: 8.5 nM; HRAS/KRAS (ratio of KD value for HRAS to KD value for KRAS) ([3]; SPR, KD ratio class): A (a compound having 10 or more and less than 20 is denoted as A); NRAS/KRAS (ratio of KD value for NRAS to KD value for KRAS) ([4]; SPR, KD ratio class): A (a compound having 10 or more and less than 20 is denoted as A) |
| CCCOC[C@H]1C(=O)N[C@@H]([C@@H](C)CC)C(=O)N(C)CC(=O)N(C)[C@H]2C/C=C\CCN(C2=O)[C@@H](Cc2ccc(C)cc2)C(=O)N(C)CC(=O)N[C@@H](CCc2ccc(Cl)c(Cl)c2)C(=O)N2C[C@H](OCC)C[C@H]2C(=O)NC2(CC(C)(C)C2)C(=O)N(C)[C@@H](CC(C)(C)C)C(=O)N(C)[C@H](C(=O)N(C)C)CC(=O)N1C [PP2716] | – | 13.8 nM | – | – | 0.34 nM | HRAS/KRAS (ratio of KD value with respect to GDP-bound HRAS wild-type protein to KD value with respect to KRAS) [3]: A (a compound having 10 or more and less than 20 is denoted as A); NRAS/KRAS (ratio of KD value with respect to GDP-bound NRAS wild-type protein to KD value with respect to KRAS) [4]: A (a compound having 10 or more and less than 20 is denoted as A) |
| CC[C@H](C)[C@@H]1NC(=O)[C@H](COC)N(C)C(=O)C[C@@H](C(=O)N(C)C)N(C)C(=O)[C@H](C2CCCCC2)N(C)C(=O)C2(CC(C)(C)C2)NC(=O)[C@@H]2C[C@@H](OC(C)C)CN2C(=O)[C@H](CCc2cc(F)c(C(F)(F)F)c(F)c2)NC(=O)CN(C)C(=O)[C@H](Cc2ccc(C(F)(F)F)cc2)N2CC/C=C\C[C@@H](C2=O)N(C)C(=O)CN(C)C1=O [PP2654] | – | 12.4 nM | – | – | 0.12 nM | HRAS/KRAS (ratio of KD value with respect to GDP-bound HRAS wild-type protein to KD value with respect to KRAS) [3]: A (a compound having 10 or more and less than 20 is denoted as A); NRAS/KRAS (ratio of KD value with respect to GDP-bound NRAS wild-type protein to KD value with respect to KRAS) [4]: A (a compound having 10 or more and less than 20 is denoted as A) |
| CCOC[C@H]1C(=O)N[C@@H]([C@@H](C)CC)C(=O)N(C2CC2)CC(=O)N(C)[C@H]2C/C=C\CCN(C2=O)[C@@H](Cc2ccc(C)cc2)C(=O)N(C)CC(=O)N[C@@H](CCc2cc(F)c(C(F)(F)F)c(F)c2)C(=O)N2C[C@H](OCC)C[C@H]2C(=O)NC2(CC(C)(C)C2)C(=O)N(C)[C@@H](CC(C)(C)C)C(=O)N(C)[C@H](C(=O)N(C)C)CC(=O)N1C [PP2720] | – | 7.7 nM | – | – | 0.35 nM | HRAS/KRAS (ratio of KD value with respect to GDP-bound HRAS wild-type protein to KD value with respect to KRAS) [3]: A (a compound having 10 or more and less than 20 is denoted as A); NRAS/KRAS (ratio of KD value with respect to GDP-bound NRAS wild-type protein to KD value with respect to KRAS) [4]: A (a compound having 10 or more and less than 20 is denoted as A) |
